Reference: patent publication US20200113902A1, “COMPOSITIONS AND METHODS FOR TREATING CANCERS WITH COVALENT INHIBITORS OF CYCLIN-DEPENDENT KINASE 7 (CDK7)” (Syros Pharmaceuticals, Inc., priority 2017, published 2020)

What was measured:
[1] = test system: MCL1 protein in HCC70 xenograft tumor; assay: HCC70 xenograft tumor, Western blot; assay type: in vivo; conditions: HCC70 xenograft mouse; single dose of 40 mg/kg
Experimental: (§1) Cytotoxic cancer cell lines HCC70 and TOV21G, and cytostatic cancer cell lines T47D and COV318 were seeded in wells of a six-well dish at a density of 1×10^6 cells/well and allowed to adhere overnight. Cells were then treated with 50 nM of Compound 1 for 16 or 24 hours, or with DMSO (0 hours) representing a negative control. Cells were harvested and placed on ice, and resuspended in RIPA lysis buffer supplemented with protease and phosphatase inhibitors. Clarified lysates prepared with 4×LSD running buffer and boiled at 95° C. for 5 minutes. Equivalent amounts of sample (10 μg total protein) were run on a 4-12% Bis-Tris gel and transferred to a PDVF membrane for Western blotting using standard Western blotting protocols. Membranes were blocked with Licor TBS blocking buffer then probed with antibodies for BCL-XL, BCL-2, MCL1, BID, and GAPDH visualized using and Odyssey imager (FIGS. 23A and 23D).
Subcutaneous HCC70 xenografts were established in BALC/c nude mice at ChemPartner (Shanghai, China). Each mouse was inoculated subcutaneously in the right flank with 5×10^6 HCC70 cells (ATCC, CAT #: CRL-2315) in 0.2 ml of a 1:1 mixture of base medium and Matrigel. Tumor sizes were measured in two dimensions using a caliper, and the volumes were expressed in mm^3 using the formula: V=0.5 a×b^2 where a and b are the longest and shortest diameters of the tumor, respectively. […]

[2] = test system: MCL1 protein in OC1M1 cells; assay: Western blot, AML cell line OC1M1; assay type: cell-based; conditions: OC1M1 (high BCL-XL); 50 nM
Experimental: as §1
(§2) We next explored the expression of MCL1, BCL-XL and BCL2 in four different AML cell lines. MV411, OCI-AML3 and KG1 cells were separately grown and prepared as described in Example 2 for Western blotting, using antibodies specific for BCL2 (FIG. 24A), BCL-XL, MCL-1 and tubulin as an internal control (FIG. 24B).

leukemic cells = conditions: leukemic vs non-malignant cells; previously shown; cited from earlier work
BR5010 xenografts = assay: TNBC patient-derived xenograft BR5010, tumor volume; assay type: in vivo, mouse; conditions: 40 mg/kg or 30 mg/kg i.v. BIW
Experimental: (§3) Patient-derived xenograft (PDX) models from TNBC patients (BR5010, BR5013, BR5015, and BR5023) were established in NOD-SCID mice at Crown Bioscience (San Diego, USA). Cryo vials containing tumor cells were thawed and prepared for injection into mice. Cells were washed in PBS, counted, and resuspended in cold PBS at a concentration of 50,000-100,000 viable cells/100 ul. Cell suspensions were mixed with an equal volume of Cultrex ECM and kept on ice during transport to the vivarium. Cells were prepared for injections by withdrawing ECM-Cell mixture into a chilled slip-tip syringe fitted with a 26G 7/8 (0.5 mm×22 mm) needle. The filled syringes were kept on ice to avoid the solidification of ECM. Each mouse was inoculated subcutaneously in the right flank with 200 uL of the cell suspension. Tumor sizes were measured in two dimensions using a caliper, and the volumes were expressed in mm^3 using the formula: V=0.5 a×b^2, where a and b are the longest and shortest diameters of the tumor, respectively. Compound 1 treatment was started when the average tumor size reached 150-200 mm^3.
(§4) Compound 1 was formulated in w/v 20% Captisol (pH 4-6) and administered by i.v. twice weekly (BIW) at a final dose of 40 mg/kg or 30 mg/kg in a 10 ml/kg volume. Tumor volumes were measured twice weekly over the course of the study. […]

[3] = test system: MCL1 protein in OCI-AML3 cells; assay: Western blot, AML cell line OCI-AML3; assay type: cell-based; conditions: 50 nM
Experimental: as §1, §2

[4] = test system: MCL1 protein in MV411 cells; assay: Western blot, AML cell line MV411; assay type: cell-based; conditions: 50 nM
Experimental: as §1, §2

OV15612 xenograft = assay: Ovarian PDX OV15612, tumor volume; assay type: in vivo, mouse; conditions: OV15612 (FGFR1 super enhancer, CCNE1 high); 40 or 30 mg/kg i.v. BIW
Experimental: as §3, with “from ovarian carcinoma” for “from TNBC”, “patients (OV5387, OV14702, OV14972, OV15398, OV15576, OV15696, OV15612, OV15631)” for “patients (BR5010, BR5013, BR5015, and BR5023)”, “in mm3” for “in mm^3”, “V=0.5 a×b^2” for “V=0.5 a×b^2,”
as §4

BR5023 xenografts = assay: TNBC patient-derived xenograft BR5023, tumor volume; assay type: in vivo, mouse; conditions: 40 mg/kg or 30 mg/kg i.v. BIW
Experimental: as §3, §4

[5] = test system: homologous recombination deficiency / carboplatin sensitivity genes in COV318 cells; assay: Nanostring PanCancer Pathways mRNA, COV318; assay type: cell-based; conditions: 50 nM, 16 hours
Experimental: Ovarian Cell lines OvCar3, TOV21G, A2780 and COV318 were plated at 500,000 cells/well in a 6-well plate the day before treatment. The next day the cells were treated with vehicle or 50 nM Compound 1 for 0, 6, or 16 hours after which cells were harvested and total RNA collected using RNeasy mini kit (Qiagen). Changes in mRNA between samples were analyzed with Nanostring™ PanCancer Pathways Panels specifically analyzing genes related to homologous recombination deficiency and carboplatin sensitivity (ie. BRCA1, BRCA2, Rad51, ATM, ATR, MSH2, MSH6). Nanostring signal intensities were first normalized to housekeeping genes across all cell lines, and then normalized to the 0 hour timepoint within a cell line.

BR5013 xenografts = assay: TNBC patient-derived xenograft BR5013, tumor volume; assay type: in vivo, mouse; conditions: 40 mg/kg or 30 mg/kg i.v. BIW
Experimental: as §3, §4

Q: With `CN(C)C/C=C/C(=O)Nc1ccc(C(=O)N[C@@]2(C)CCC[C@@H](Nc3ncc(Cl)c(-c4c[nH]c5ccccc45)n3)C2)nc1` [Compound 1, N-((1S,3R)-3-(5-chloro-4-(1H-indol-3-yl)pyrimidin-2-ylamino)-1-methylcyclohexyl)-5-((E)-4-(dimethylamino)but-2-enamido)picolinamide] as the compound, how does the “MCL1 protein expression in tumor (Western blot)” value [1] read?
A: The value was “reduced MCL1 protein expression”.

Q: What about the “MCL1 protein level (Western blot)” value [2] of the same compound?
A: The value was “little effect”.

Q: What about the “Induction of apoptosis in vitro” value (leukemic cells) of the same compound?
A: Its value is “selectively induce apoptosis in leukemic cells relative to non-malignant cells”.

Q: What about the “Tumor growth vs untreated historical samples” value (BR5010 xenografts) of the same compound?
A: The value was “consistently inhibited tumor growth”.

Q: And the “MCL1 protein level (Western blot)” value [3]?
A: Its value is “significant reduction in MCL1”.

Q: What about the “MCL1 protein level (Western blot)” value [4] of the same compound?
A: Its value is “significant reduction in MCL1”.

Q: And the “Response to treatment (tumor growth)” value (OV15612 xenograft)?
A: The value was “responded”.

Q: What about the “Tumor growth vs untreated historical samples” value (BR5023 xenografts) of the same compound?
A: The value was “little inhibitory effect on tumor growth”.

Q: What about the “mRNA of genes related to homologous recombination deficiency and carboplatin sensitivity, all genes except Rad51 (BRCA1, BRCA2, ATM, ATR, MSH2, MSH6)” value [5] of the same compound?
A: The value was “downregulated”.

Q: What about the “Tumor growth vs untreated historical samples” value (BR5013 xenografts) of the same compound?
A: Its value is “little inhibitory effect on tumor growth”.
